Tests used:
GmITPK2 = target: T1, GmITPK2 (Glycine max, UniProt A7X665); assay: Ins; type: biochemical; conditions: 1 mM ADP, pH 7.2, 25 °C
T1 sequence (A7X665 1-315): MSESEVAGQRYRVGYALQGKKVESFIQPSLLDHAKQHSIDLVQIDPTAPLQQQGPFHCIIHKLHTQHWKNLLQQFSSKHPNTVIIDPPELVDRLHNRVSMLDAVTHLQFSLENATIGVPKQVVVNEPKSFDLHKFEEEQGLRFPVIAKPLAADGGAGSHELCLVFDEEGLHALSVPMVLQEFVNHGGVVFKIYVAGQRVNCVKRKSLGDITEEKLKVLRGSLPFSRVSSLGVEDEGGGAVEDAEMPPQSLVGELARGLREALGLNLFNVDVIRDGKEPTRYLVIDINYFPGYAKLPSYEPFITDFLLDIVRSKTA

GmITPK1 = target: T2, GmITPK1 (Glycine max, UniProt A7X657); assay: InsP6 kinase activity assay; type: biochemical; conditions: 1 mM ATP, pH 7.2, 25 °C
T2 sequence (A7X657 1-339): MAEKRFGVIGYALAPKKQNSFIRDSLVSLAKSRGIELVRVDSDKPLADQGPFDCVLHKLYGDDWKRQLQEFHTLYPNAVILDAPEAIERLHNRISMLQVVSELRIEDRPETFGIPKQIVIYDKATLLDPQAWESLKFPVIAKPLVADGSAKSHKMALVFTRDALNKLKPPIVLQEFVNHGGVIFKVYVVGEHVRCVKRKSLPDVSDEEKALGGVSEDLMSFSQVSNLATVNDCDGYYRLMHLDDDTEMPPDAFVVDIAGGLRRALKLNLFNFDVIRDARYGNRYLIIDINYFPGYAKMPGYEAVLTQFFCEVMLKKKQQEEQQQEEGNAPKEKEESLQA

| SMILES | Ins(1,3,4,5,6)P5 phosphatase activity assay (GmITPK2) | InsP6 kinase activity assay (GmITPK1) |
| --- | --- | --- |
| O=P(O)(O)O[C@@H]1[C@@H](OP(=O)(O)O)[C@H](OP(=O)(O)O)[C@H](O)[C@H](OP(=O)(O)O)[C@H]1OP(=O)(O)O [Ins(1,3,4,5,6)P5] | GmITPK2 exhibited the higher activity | – |
| O=P(O)(O)O[C@H]1[C@H](OP(=O)(O)O)[C@@H](OP(=O)(O)O)[C@H](OP(=O)(O)O)[C@@H](OP(=O)(O)O)[C@H]1OP(=O)(O)O [InsP6] | – | recombinant His6MBP-GmITPK1 is an active InsP6 kinase |

— paper PMC9202514 (FASEB journal : official publication of the Federation of …, 2022)
